The results in this text go back to patent publication US10821115B2, “Compounds that inhibit Mcl-1 protein” (priority 2017, dated 2020).

Structures are written as SMILES. Where two headings read alike, the source gives them in different places.

Assay [1] concerns the target recombinant human Mcl-1 (residues 171-327) / Bim interaction (Homo sapiens (Human), UniProt Q07820). Description: biochemical. The format is binding. As to conditions: read-out: Mcl-1 HTRF IC50. In general terms: Time-resolved FRET reads energy transfer from a long-lived donor to a nearby acceptor.
Assay [2] relates to human multiple myeloma cell line, OPM-2. Description: Cell viability assay (OPM-2 10 FBS), CellTiter-Glo. The format is cell-based. In outline:
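Serially diluted test compounds are incubated 16 h with cells (3000/well) in RPMI 1640 supplemented with 10% FBS. Viability is then measured by luminescence and IC50 calculated by 4-parameter logistic fit.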

Where [3] appears, read: TR-FRET, Mcl-1(171-327) / biotin-Bim (51-76).
Where [4] appears, read: Homo sapiens, OPM-2, 16 h, read-out: OPM-2 10% FBS IC50 IP, OPM-2 cells, 10% FBS, 16 h, CellTiter-Glo.
Setting [5] is: read-out: OPM-2 10% FBS IC50 IP, OPM-2 cells, 10% FBS, 16 h, CellTiter-Glo.
[6] abbreviates: 0.1 nM Mcl-1(171-327), 0.05 nM biotin-Bim (51-76).
Where [7] appears, read: Homo sapiens, OPM-2, 16 h, read-out: OPM-2 10% FBS IC50 IP, OPM-2 cells, 10% FBS, 16 h incubation.
Setting [8] is: read-out: OPM-2 10% FBS IC50 IP, OPM-2 cells, 10% FBS, 16 h incubation.

Chain of recombinant human Mcl-1 (residues 171-327) / Bim interaction (Q07820 171-327): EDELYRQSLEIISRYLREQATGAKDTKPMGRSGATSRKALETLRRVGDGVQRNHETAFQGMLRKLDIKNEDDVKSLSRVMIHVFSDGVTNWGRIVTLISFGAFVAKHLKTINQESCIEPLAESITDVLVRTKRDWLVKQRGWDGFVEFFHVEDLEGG

For orientation: IC50 means the midpoint of a concentration-inhibition curve. `COC(OC)c1cncc([C@]2(OC)/C=C/C[C@H](C)[C@@H](C)S(=O)(=O)NC(=O)c3ccc4c(c3)N(C[C@@H]3CC[C@H]32)C[C@@]2(CCCc3cc(Cl)ccc32)CO4)c1` (single isomer, unassigned) [Example 100514]: the IC50 in assay [1] (setting [3]) was 0.088 nM; in assay [2] (setting [4]), 231 nM.

`C[C@@H]1[C@@H](C)CCC[C@@](O)(CC(=O)N2CCCCC2)[C@@H]2CC[C@H]2CN2C[C@@]3(CCCc4cc(Cl)ccc43)COc3ccc(cc32)C(=O)NS1(=O)=O` [Example 100089, (1S,3′R,6′R,7′R,11′S,12′R)-6-chloro-7′-hydroxy-11′,12′-dimethyl-7′-(2-oxo-2-(1-piperidinyl)ethyl)-3,4-dihydro-2H,15′H-spiro[naphthalene-1,22′-[20]oxa[13]thia[1,14]diazatetracyclo [14.7.2.0~3,6~.0~19,24~]pentacosa[16,18,24]trien]-15′-one 13′,13′-dioxide]: the IC50 in assay [1] (setting [3]) was 0.348 nM; in assay [2] (setting [5]), 325 nM.

In the case of `CO[C@]1(CN2CCN(C(C)C)[C@@H](C)C2)/C=C/C[C@H](C)[C@@H](C)S(=O)(=O)NC(=O)c2ccc3c(c2)N(C[C@@H]2CC[C@H]21)C[C@@]1(CCCc2cc(Cl)ccc21)CO3` [Example 337, (1S,3′R,6′R,7′R,8′E,11′S,12′R)-6-chloro-7′-methoxy-11′,12′-dimethyl-7′-(((3S)-3-methyl-4-(1-methylethyl)-1-piperazinyl)methyl)-3,4-dihydro-2H,15′H-spiro[naphthalene-1,22′-[20]oxa[13]thia[1′14]diazatetracyclo [14.7.2.0~3,6~.0~19,24~]pentacosa[8,16,18,24]tetraen]-15′-one 13′,13′-dioxide], the IC50 turned out to be 0.09 nM in assay [1] (setting [6]) and 59 nM in assay [2] (setting [7]).

Turning to `COCCOC[C@]1(O)CCC[C@H](C)[C@@H](C)S(=O)(=O)NC(=O)c2ccc3c(c2)N(C[C@@H]2CC[C@H]21)C[C@@]1(CCCc2cc(Cl)ccc21)CO3` [Example 100192, (1S,3′R,6′R,7′S,11′S,12′R)-6-chloro-7′-hydroxy-7′-((2-methoxyethoxy)methyl)-11′,12′-dimethyl-3,4-dihydro-2H,15′H-spiro[naphthalene-1,22′-[20]oxa[13]thia[1,14]diazatetracyclo [14.7.2.0~3,6~.0~19,24~]pentacosa[16,18,24]trien]-15′-one 13′,13′-dioxide], the figures for the IC50 in assay [1] (setting [3]) and in assay [2] (setting [4]) were 0.192 nM and 149 nM, respectively.

As for `CCO[C@]1(CN2CCN3CCOC[C@@H]3C2)/C=C/C[C@H](C)[C@@H](COC)S(=O)(=O)NC(=O)c2ccc3c(c2)N(C[C@@H]2CC[C@H]21)C[C@@]1(CCCc2cc(Cl)ccc21)CO3` [Example 171, (1S,3′R,6′R,7′R,8′E,11′S,12′S)-6-chloro-7′-ethoxy-7′-((9aS)-hexahydropyrazino[2,1-c][1,4]oxazin-8(1H)-ylmethyl)-12′-(methoxymethyl)-11′-methyl-3,4-dihydro-2H,15′H-spiro[naphthalene-1,22′-[20]oxa[13]thia[1,14]diazatetracyclo [14.7.2.0~3,6~.0~19,24~]pentacosa[8,16,18,24]tetraen]-15′-one 13′,13′-dioxide], the IC50 in assay [1] (setting [6]) worked out at 0.074 nM; in assay [2] (setting [7]), 122 nM.

In the case of `C[C@@H]1[C@@H](C)CCC[C@@](O)(CS(=O)(=O)N(C)C)[C@@H]2CC[C@H]2CN2C[C@@]3(CCCc4cc(Cl)ccc43)COc3ccc(cc32)C(=O)NS1(=O)=O` [Example 100099, 1-((1S,3′R,6′R,7′S,11′S,12′R)-6-chloro-7′-hydroxy-11′,12′-dimethyl-13′,13′-dioxido-15′-oxo-3,4-dihydro-2H-spiro[naphthalene-1,22′-[20]oxa[13]thia[1,14]diazatetracyclo [14.7.2.0~3,6~.0~19,24~]pentacosa[16,18,24]trien]-7′-yl)-N,N-dimethylmethanesulfonamide], the half-maximal inhibitory concentration (IC50) was determined as 0.659 nM in assay [1] and 349 nM in assay [2] (setting [5]).

Take `CO[C@]1(CN2CC[C@H]3CCCC[C@@H]3C2)/C=C/C[C@H](C)[C@@H](C)S(=O)(=O)NC(=O)c2ccc3c(c2)N(C[C@@H]2CC[C@H]21)C[C@@]1(CCCc2cc(Cl)ccc21)CO3` [Example 86]: the figures for the IC50 in assay [1] (setting [6]) and in assay [2] (setting [8]) were 3.9 nM and 7950 nM, respectively.

With `C[C@@H]1[C@@H](C)C/C=C/[C@@](O)(C#CCCN2CCOCC2)[C@@H]2CC[C@H]2CN2C[C@@]3(CCCc4cc(Cl)ccc43)COc3ccc(cc32)C(=O)NS1(=O)=O` [Example 100327, (1S,3′R,6′R,7′S,8′E,11′S,12′R)-6-chloro-7′-hydroxy-11′,12′-dimethyl-7′-(4-(4-morpholinyl)-1-butyn-1-yl)-3,4-dihydro-2H,15′H-spiro[naphthalene-1,22′-[20]oxa[13]thia[1,14]diazatetracyclo [14.7.2.0~3,6~.0~19,24~]pentacosa[8,16,18,24]tetraen]-15′-one 13′,13′-dioxide], the figures for the IC50 in assay [1] (setting [3]) and in assay [2] (setting [5]) were 0.295 nM and 550 nM, respectively.

Take `C[C@@H]1[C@@H](C)C/C=C/[C@@](O)(C#CCCc2ccccn2)[C@@H]2CC[C@H]2CN2C[C@@]3(CCCc4cc(Cl)ccc43)COc3ccc(cc32)C(=O)NS1(=O)=O` [Example 100454, (1S,3′R,6′R,7′S,8′E,11′S,12′R)-6-chloro-7′-hydroxy-11′,12′-dimethyl-7′-(4-(2-pyridinyl)-1-butyn-1-yl)-3,4-dihydro-2H,15′H-spiro[naphthalene-1,22′-[20]oxa[13]thia[1,14]diazatetracyclo [14.7.2.0~3,6~.0~19,24~]pentacosa[8,16,18,24]tetraen]-15′-one 13′,13′-dioxide]: the IC50 in assay [1] (setting [3]) came to 0.652 nM; in assay [2] (setting [5]), 802 nM.

On to `CO[C@@]1(CN2CCN([C@@H]3CCOC3)CC2)/C=C/C[C@H](C)[C@@H](C)S(=O)(=O)NC(=O)c2ccc3c(c2)N(C[C@@H]2CC[C@H]21)C[C@@]1(CCCc2cc(Cl)ccc21)CO3` (single isomer, unassigned) [Example 286], for which the half-maximal inhibitory concentration (IC50) came to 0.155 nM in assay [1] (setting [6]) and 50 nM in assay [2] (setting [8]).

On to `CO[C@@]1(C[C@H](O)c2ccccn2)/C=C/C[C@H](C)[C@@H](C)S(=O)(=O)NC(=O)c2ccc3c(c2)N(C[C@@H]2CC[C@H]21)C[C@@]1(CCCc2cc(Cl)ccc21)CO3` (single isomer, unassigned) [Example 100489], for which the 50% inhibitory concentration (IC50) in assay [1] (setting [3]) is 0.88 nM; in assay [2] (setting [5]), 182 nM.

In the case of `COCC(COC)N1CCN(C[C@@]2(OC)/C=C/C[C@H](C)[C@@H](C)S(=O)(=O)NC(=O)c3ccc4c(c3)N(C[C@@H]3CC[C@H]32)C[C@@]2(CCCc3cc(Cl)ccc32)CO4)CC1` [Example 304, (1S,3′R,6′R,7′R,8′E,11′S,12′R)-6-chloro-7′-methoxy-7′-((4-(2-methoxy-1-(methoxymethyl)ethyl)-1-piperazinyl)methyl)-11′,12′-dimethyl-3,4-dihydro-2H,15′H-spiro[naphthalene-1,22′-[20]oxa[13]thia[1,14]diazatetracyclo [14.7.2.0~3,6~.0~19,24~]pentacosa[8,16,18,24]tetraen]-15′-one 13′,13′-dioxide], the IC50 in assay [1] (setting [6]) was determined as 0.226 nM; in assay [2] (setting [7]), 239 nM.

Consider `C[C@@H]1[C@@H](C)CCC[C@](O)(CO)[C@@H]2CC[C@H]2CN2C[C@@]3(CCCc4cc(Cl)ccc43)COc3ccc(cc32)C(=O)NS1(=O)=O` (single isomer, unassigned) [Example 100052], for which the half-inhibitory concentration (IC50) was determined as 0.191 nM in assay [1] (setting [3]) and 424 nM in assay [2] (setting [4]).

In the case of `CO[C@]1(CN2CCN3CCCC[C@@H]3C2)/C=C/C[C@H](C)[C@@H](CC2CCC2)S(=O)(=O)NC(=O)c2ccc3c(c2)N(C[C@@H]2CC[C@H]21)C[C@@]1(CCCc2cc(Cl)ccc21)CO3` [Example 40, (1S,3′R,6′R,7′R,8′E,11′S,12′R)-6-chloro-12′-(cyclobutylmethyl)-7′-methoxy-11′-methyl-7′-((9aR)-octahydro-2H-pyrido[1,2-a]pyrazin-2-ylmethyl)-3,4-dihydro-2H,15′H-spiro[naphthalene-1,22′-[20]oxa[13]thia[1,14]diazatetracyclo [14.7.2.0~3,6~.0~19,24~]pentacosa[8,16,18,24]tetraen]-15′-one 13′,13′-dioxide], the half-inhibitory concentration (IC50) in assay [1] (setting [6]) stood at 0.444 nM; in assay [2] (setting [7]), 571 nM.

With `C=C(F)C[C@@]1(O)/C=C/C[C@H](C)[C@@H](C)S(=O)(=O)NC(=O)c2ccc3c(c2)N(C[C@@H]2CC[C@H]21)C[C@@]1(CCCc2cc(Cl)ccc21)CO3` [Example 100564, (1S,3′R,6′R,7′R,8′E,11′S,12′R)-6-chloro-7′-(2-fluoro-2-propen-1-yl)-7′-hydroxy-11′,12′-dimethyl-3,4-dihydro-2H,15′H-spiro[naphthalene-1,22′-[20]oxa[13]thia[1,14]diazatetracyclo [14.7.2.0~3,6~.0~19,24~]pentacosa[8,16,18,24]tetraen]-15′-one 13′,13′-dioxide], the results for the IC50 in assay [1] (setting [3]) and in assay [2] (setting [4]) were 0.333 nM and 1430 nM, respectively.

As to `CO[C@]1(COCCN2CCOCC2)/C=C/C[C@H](C)[C@@H](C)S(=O)(=O)NC(=O)c2ccc3c(c2)N(C[C@@H]2CC[C@H]21)C[C@@]1(CCCc2cc(Cl)ccc21)CO3` [Example 100594, (1S,3′R,6′R,7′R,8′E,11′S,12′R)-6-chloro-7′-methoxy-11′,12′-dimethyl-7′-((2-(4-morpholinyl)ethoxy)methyl)-3,4-dihydro-2H,15′H-spiro[naphthalene-1,22′-[20]oxa[13]thia[1,14]diazatetracyclo [14.7.2.0~3,6~.0~19,24~]pentacosa[8,16,18,24]tetraen]-15′-one 13′,13′-dioxide], the IC50 is 0.143 nM in assay [1] (setting [3]) and 241 nM in assay [2] (setting [4]).
